From the NIST ThermoML archive (doi:10.1021/acs.jced.5b00606)

How the values were obtained:
[1] = for vapor or sublimation pressure: Liquid, Transpiration method
[2] = Molar enthalpy of transition or fusion; conditions: Crystal; Drop ice or diphenyl ether calorimetry

c1cn2ccnc2cn1 [imidazo[1,2-a]pyrazine]
[1]
Conditions | vapor or sublimation pressure [kPa]
369.6 K | 0.1641
373.8 K | 0.2038
379 K | 0.2643
383 K | 0.34
385.2 K | 0.373
388.2 K | 0.4381
390.2 K | 0.4952
393.4 K | 0.5831

Conditions | Triple point temperature [K]
[1], Crystal, DTA | 359.2

Conditions | Molar enthalpy of transition or fusion [kcal/mol]
[2] | 3.66
